Laboratory results taken from patent US20070202203A1, “ANTI-AGEING COMPOSITION” (L'OREAL, priority 2006, published 2007).

Tested on: dermal equivalent consisting of a collagen matrix seeded with normal human fibroblasts
Test: Dermodecontracting effect: spontaneous contraction of dermal equivalent
Format: cell-based
Conditions: surface area after 24 h of contraction; control = 100; manganese gluconate 0.0005%, adenosine 0.004%
Excerpt: These conditions are intended to mimic in vitro, the dermal contractile phenomena that occur during dermal tensing of the face, for example during facial expressions. Under these conditions, in fact, the cells spontaneously express tensile forces that induce retraction of the collagen gel. […] The measurement of this surface area makes it possible to evalue the relaxing or dermocontracting effects of the substances previously brought into contact with the dermal equivalent. […] The experiment is repeated three times. The dermal equivalents are prepared as described in Asselineau et al., Exp. Cell. Res., 1985, 159, 536-539; Models in dermatology, 1987, vol 3 pp 1-7, in the following proportions: The collagen used is collagen type I (commercial solution), but collagen type III or IV can also be used. It is extracted from rat tails or from calf skin by acid hydrolysis and conserved in an acidic medium at […]; it polymerizes naturally by heating to 37° C. and by decreasing the degree of acidity. The collagen is dialysed beforehand against successive baths of water +acetic acid. […] For this, a digital image is acquired for each treated or nontreated dermal equivalent by means of a camera (CCD camera—Iris Sony DXC—107P) and the surface area is then calculated on each image by means of an image analysis system (Zeiss Axiovision 3.0). […]

Compound	% contraction
Nc1ncnc2c1ncn2[C@@H]1O[C@H](CO)[C@@H](O)[C@H]1O [Adenosine, adenosine]	82%
manganese gluconate	89%
